Data reported in patent US8981111B2 (priority 2008, dated 2015).

Assay: log P (HPLC/MS data of the preparation examples)
Settings: LC-MS, method [b]: pH 2.7 with 0.1% formic acid in water and acetonitrile, linear gradient 10% to 95% acetonitrile

Compound	log p
Cn1nncc1C(=NOCc1nccc(NC(=O)C(C)(C)C)n1)c1ccccc1 [Example 77]	2.77^[b]
CCCCS(=O)(=O)N(c1cccc(CON=C(c2ccc(C)cc2)c2ncnn2C)n1)S(=O)(=O)CCCC [Example 78]	4.51^[b]
CCCCS(=O)(=O)N(c1cccc(CON=C(c2cccc(C)c2)c2ncnn2C)n1)S(=O)(=O)CCCC [Example 79]	4.49^[b]
CCCCS(=O)(=O)N(c1cccc(CON=C(c2ccccc2)c2cnnn2C)n1)S(=O)(=O)CCCC [Example 80]	4.26^[b]
Cn1nncc1C(=NOCc1nccc(NC(=O)Cc2ccccc2)n1)c1ccccc1 [Example 81]	2.84^[b]
CC(C)CC(=O)Nc1ccnc(CON=C(c2ccccc2)c2cnnn2C)n1 [Example 82]	2.77^[b]
Cn1nncc1C(=NOCc1csc(NC(=O)C(C)(C)C)n1)c1ccccc1 [Example 83]	3.06^[b]
CCCCCOC(=O)Nc1nc(CON=C(c2ccccc2)c2cnnn2C)cs1 [Example 84]	3.76^[b]
CCCCCC(=O)Nc1nc(CON=C(c2ccccc2)c2cnnn2C)cs1 [Example 85]	3.44^[b]
CC(C)CC(=O)Nc1nc(CON=C(c2ccccc2)c2cnnn2C)cs1 [Example 86]	3^[b]
CCCCCOC(=O)Nc1ccnc(CON=C(c2ccccc2)c2cnnn2C)n1 [Example 87]	3.55^[b]
CCCCCCOC(=O)Nc1cccc(CON=C(c2ccccc2)c2ncnn2C)n1 [Example 88]	4.36^[b]
CCCOC(=O)Nc1cccc(CON=C(c2ccccc2)c2ncnn2C)n1 [Example 89]	3.15^[b]
Cn1cncc1C(=NOCc1cccc(N2C(=O)c3ccccc3C2=O)n1)c1ccccc1 [Example 90]	1.81^[b]
CCCCOC(=O)Nc1cccc(CON=C(c2ccccc2)c2ncnn2C)n1 [Example 91]	3.53^[b]
Cn1ncnc1C(=NOCc1cccc(NC(=O)OCCCCCl)n1)c1ccccc1 [Example 92]	3.39^[b]
CCOC(=O)Nc1cccc(CON=C(c2ccccc2)c2ncnn2C)n1 [Example 93]	2.71^[b]
C#CCCOC(=O)Nc1cccc(CON=C(c2ccccc2)c2ncnn2C)n1 [Example 94]	2.82^[b]
Cn1cncc1C(=NOCc1nccc(N)n1)c1ccccc1 [Example 95]	0.01^[b]
CC(C)CC(=O)Nc1nc(CON=C(c2ccccc2)c2ncnn2C)cs1 [Example 96]	2.88^[b]
Cn1cncc1C(=NOCc1nccc(NC(=O)C(C)(C)C)n1)c1ccccc1 [Example 99]	1.76^[b]
Cn1ncnc1C(=NOCc1csc(NC(=O)C(C)(C)C)n1)c1ccccc1 [Example 101]	2.92^[b]
Cn1c(C(=NOCc2nccc(NC(=O)C(C)(C)C)n2)c2ccccc2)cnc1C(=O)C(C)(C)C [Example 102]	4.84^[b]
CC(C)C=C(OC(=O)CC(C)C)c1ncc(C(=NOCc2nccc(NC(=O)CC(C)C)n2)c2ccccc2)n1C [Example 103]	4.04^[b]
Cn1cncc1C(=NOCc1nccc(N(C(=O)C2CC2)C(=O)C2CC2)n1)c1ccccc1 [Example 104]	1.75^[b]
CCCCCCCOC(=O)Nc1cccc(CON=C(c2ccccc2)c2ncnn2C)n1 [Example 106]	4.86^[b]

Compound	log p
Cn1ncnc1C(=NOCc1cccc(NC(=O)CCc2ccccc2)n1)c1ccccc1 [Example 107]	3.33^[b]
CC(C)C(=O)Nc1ccnc(CON=C(c2ccccc2)c2cnc(C(=O)C(C)C)n2C)n1 [Example 109]	3.62^[b]
CC(C)=C(OC(=O)C(C)C)c1ncc(C(=NOCc2nccc(NC(=O)C(C)C)n2)c2ccccc2)n1C [Example 110]	2.77^[b]
Cn1cncc1C(=NOCc1csc(N)n1)c1ccccc1 [Example 111]	0.69^[b]
CC(C)CC(=O)Nc1ccnc(CON=C(c2ccccc2)c2cncn2C)n1 [Example 112]	1.99^[b]
CCCCCOC(=O)N(C)c1cccc(CON=C(c2ccccc2)c2ncnn2C)n1 [Example 113]	4.39^[b]
CCCCCOC(=O)Nc1ccnc(CON=C(c2ccccc2)c2cncn2C)n1 [Example 115]	2.66^[b]
CCCCCC(=O)Nc1nc(CON=C(c2ccccc2)c2cncn2C)cs1 [Example 116]	2.08^[b]
Cn1cncc1C(=NOCc1csc(NC(=O)C(C)(C)C)n1)c1ccccc1 [Example 117]	1.84^[b]
CC(C)CC(=O)Nc1nc(CON=C(c2ccccc2)c2cncn2C)cs1 [Example 118]	1.84^[b]
CC(C)C(=O)Nc1nc(CON=C(c2ccccc2)c2cncn2C)cs1 [Example 119]	1.63^[b]
CCCCCC(=O)Nc1cccc(CON=C(c2ccccc2)c2cncn2C)n1 [Example 120]	2.11^[b]
CC(C)CC(=O)Nc1cccc(CON=C(c2ccccc2)c2cncn2C)n1 [Example 121]	1.84^[b]
CC(C)C(=O)Nc1ccnc(CON=C(c2ccccc2)c2cncn2C)n1 [Example 124]	1.49^[b]
CC(C)C(=O)Nc1cccc(CON=C(c2ccccc2)c2cncn2C)n1 [Example 125]	1.63^[b]
Cn1cncc1C(=NOCc1csc(NC(=O)COc2ccccc2)n1)c1ccccc1 [Example 127]	2.01^[b]
CCCCC(=O)Nc1ccnc(CON=C(c2ccccc2)c2cncn2C)n1 [Example 128]	1.75^[b]
CCCC(=O)Nc1ccnc(CON=C(c2ccccc2)c2cncn2C)n1 [Example 129]	1.5^[b]
CCCCCCC(=O)Nc1ccnc(CON=C(c2ccccc2)c2cncn2C)n1 [Example 130]	2.2^[b]
CCCCCCCCCC(=O)Nc1ccnc(CON=C(c2ccccc2)c2cncn2C)n1 [Example 131]	2.98^[b]
Cn1cncc1C(=NOCc1nccc(NC(=O)COc2ccccc2)n1)c1ccccc1 [Example 132]	1.86^[b]
Cn1ccnc1C(=NOCc1csc(N)n1)c1ccccc1 [Example 133]	0.75^[b]
Cn1ncnc1C(=NOCc1cccc(CNC(=O)CCc2ccccc2)n1)c1ccccc1 [Example 134]	2.56^[b]
CCCCC(=O)NCc1cccc(CON=C(c2ccccc2)c2ncnn2C)n1 [Example 135]	2.28^[b]
CC(C)CC(=O)NCc1cccc(CON=C(c2ccccc2)c2ncnn2C)n1 [Example 136]	2.23^[b]
Cn1ncnc1C(=NOCc1cccc(CNC(=O)C(C)(C)C)n1)c1ccccc1 [Example 137]	2.28^[b]

Same assay, conditions: method [b]: LC-MS at pH 2.7, 0.1% formic acid in water / acetonitrile, linear gradient 10% to 95% acetonitrile

Compound	log p
Cn1ncnc1C(=NOCc1cccc(CNC(=O)Cc2ccccc2)n1)c1ccccc1 [Example 138]	2.44^[b]
CCCCCC(=O)NCc1cccc(CON=C(c2ccccc2)c2ncnn2C)n1 [Example 140]	2.62^[b]
CCCCOC(=O)NCc1cccc(CON=C(c2ccccc2)c2ncnn2C)n1 [Example 141]	2.84^[b]
Cn1nc(C(=NOCc2cccc(N3C(=O)c4ccccc4C3=O)n2)c2ccccc2)n(C)c1=O [Example 142]	2.66^[b]
Cn1cnnc1C(=NOCc1cccc(N2C(=O)c3ccccc3C2=O)n1)c1ccccc1 [Example 144]	2.3^[b]
CCCCCOC(=O)Nc1cccc(CON=C(c2ccccc2)c2nn(C)c(=O)n2C)n1 [Example 146]	3.8^[b]
Cn1nc(C(=NOCc2cccc(NC(=O)C(C)(C)C)n2)c2ccccc2)n(C)c1=O [Example 147]	2.86^[b]
